According to patent US4812461A, “Imide derivatives and their use in the treatment psychosis” (Sumitomo Pharmaceuticals Company, Limited, priority 1986, dated 1989):
Read-outs that look alike come from different tables or passages of the source.

Key:
[1] = tested on: climbing behavior induced by apomorphine; experiment: Anti-climbing behavior test (suppression of climbing behavior induced by apomorphine in mice); type: in vivo, dd strain male mice; conditions: for ED50: Mus musculus
Excerpt: This activity was examined through the anti-climbing behavior test, i.e. the test for suppressing the climbing behavior induced by apomorphine in mice. A designated amount of the test compound was orally administered to several groups of dd strain male mice (bodyweight, 20 to 25 g; one group, 5 mice), and each of the animals was charged in an individual column cage of 12 cm in diameter and 14 cm in height having metal poles (each pole, 2 mm in diameter) vertically installed and arranged along the periphery with intervals of 1 cm. […]
0 All the paws were on the floor
1 Only forepaws seized the pole of the cage
2 All the paws seized the pole of the cage;
climbing behavior observed discontinu-
3 Continuous climbing behavior observed

[2] = Extrapyramidal activity: catalepsy inducing activity test; type: in vivo, dd strain male mice; conditions: mouse, in vivo; oral; catalepsy checked 1 and 4 hours after administration; strained state over 30 seconds; mice
Protocol: (§1) A designated amount of the test compound was orally administered to dd strain male mice (bodyweight, 22 to 27 g), and 1 and 4 hours after the administration, catalepsy induction was checked according to the Wirth et al method. Thus, each of the animals was forced to hang its forepaws onto a metal pole of 2.5 mm in diameter horizontally situated at a height of 5 cm to keep in a strained state. The test was made with three repetitions, and the presence of at least one case in which the animal was kept in the strained state over a period of 30 seconds was deemed to have caused catalepsy.

[3] = cited from earlier work; for side effects on clinical use, in words: conventional neuroleptics
[4] = tested on: catalepsy induction; experiment: Extrapyramidal activity: catalepsy inducing activity test; type: in vivo, dd strain male mice; conditions: oral
Protocol: as §1

[5] = sc, subcutaneous, apomorphine 1.0 mg/kg s.c., mice, read-out: ED50, Subcutaneous administration (anti-climbing, neuroleptic activity)
[6] = oral, after 1 hour, apomorphine 1.0 mg/kg s.c., mice, read-out: ED50, Oral administration After 1 hour (anti-climbing, neuroleptic activity)
[7] = oral, after 4 hours, apomorphine 1.0 mg/kg s.c., mice, read-out: ED50, Oral administration After 4 hours (anti-climbing, neuroleptic activity)

| Compound | ED50 [1, 5] [mg/kg] | ED50 [1, 6] [mg/kg] | ED50 [1, 7] [mg/kg] | ED50 [2] [mg/kg] | side effects on clinical use, in words [3] | other results |
| --- | --- | --- | --- | --- | --- | --- |
| O=C(c1ccc(F)cc1)C1CCN(CCCCN2C(=O)[C@@H]3[C@H]4CC[C@H](C4)[C@@H]3C2=O)CC1 [Compound No. 1, N-[4-{4-(4-Fluorobenzoyl)piperidinyl}butyl]bicyclo[2.2.1]heptane-2,3-di-exo-carboximide] | 0.12 | 3.7 | 21.8 | 25 to 50 | – | – |
| O=C1[C@@H]2[C@H]3CC[C@H](C3)[C@@H]2C(=O)N1CCCCN1CCC(c2nsc3ccccc23)CC1 [Compound No. 2, N-[4-{4-(1,2-Benzisothiazol-3-yl)-1-piperidinyl}butyl]bicyclo[2.2.1]heptane-2,3-di-exo-carboximide] | – | 3.5 | 3.4 | 10 to 30 | – | – |
| O=C(c1ccc(F)cc1)C1CCN(CCCCN2C(=O)[C@@H]3[C@H](C2=O)[C@H]2C=C[C@@H]3C2)CC1 [Compound No. 5, N-[4-{4-(4-Fluorobenzoyl)piperidinyl}butyl]bicyclo[2.2.1]hept-5-ene-2,3-di-exo-carboximide] | < 1 | 1.3 | 2.2 | 25 | – | – |
| O=C(CCCN1CCC(O)(c2ccc(Cl)cc2)CC1)c1ccc(F)cc1 [Haloperidol, 4-[4-(4-chlorophenyl)-4-hydroxy-1-piperidinyl]-1-(4-fluorophenyl)-1-butanone] | – | – | – | 3 | serious side effects such as catalepsy and hypotension | ED50 ([1]; po, 1 h, read-out: ED50, Oral administration After 1 hour (anti-climbing, neuroleptic activity)): 0.67 mg/kg; ED50 ([1]; po, 4 h, read-out: ED50, Oral administration After 4 hours (anti-climbing, neuroleptic activity)): 0.44 mg/kg; ED50 ([1]; sc, read-out: ED50, Subcutaneous administration (anti-climbing, neuroleptic activity)): 0.21 mg/kg; neuroleptic activity (anti-climbing activity), in words ([1]; route not stated): significant neuroleptic activity; extrapyramidal activity (catalepsy inducing activity), in words [4]: considerably high level of extra-pyramidal activity |
| O=C1CC2(CCCC2)CC(=O)N1CCCCN1CCN(c2nsc3ccccc23)CC1 [Tiaspiron, 8-[4-(3-benzisothiazolyl)-1-piperazinylbutyl]-8-azaspiro[4,5]decane-7,9-dione] | 0.23 | 9.4 | 61.5 | – | – | extrapyramidal side effects such as catalepsy inducing activity, in words ([3]; in comparison with butyrophenone compounds such as haloperidol): alleviated in extrapyramidal side effects such as catalepsy inducing activity |
| CN(C)CCCN1c2ccccc2Sc2ccc(Cl)cc21 [chlorpromazine, 2-chloro-10-(3-dimethylaminopropyl)phenothiazine] | – | – | – | – | serious side effects such as catalepsy and hypotension | – |
